Experimental data as given in US20240181022A1, “AMURINS LYSINS, AND LYSIN-ANTIMICROBIAL PEPTIDE (AMP) CONSTRUCTS ACTIVE AGAINST GRAM-NEGATIVE BACTERIA” (priority 2021, published 2024).
Read-outs that look alike come from different tables or passages of the source. Where no end group is shown, it is not given here.

Experiments:
Mycobacterium species = assay type: cell-based
M. fortuitum = assay: MIC against M. fortuitum; assay type: cell-based, Mycobacterium fortuitum; details: M. fortuitum (ATCC 6841); CAAT media
M. avium = assay: MIC against M. avium; assay type: cell-based, Mycobacterium avium; details: M. avium (ATCC 700898); CAAT media
M. intracellulare = assay: MIC against M. intracellulare; assay type: cell-based, Mycobacterium intracellulare; details: M. intracellulare (ATCC 13950); CAAT media
M. tuberculosis = assay type: cell-based, Mycobacterium tuberculosis
M. abscessus = assay: MIC against MDR M. abscessus isolates; assay type: cell-based, Mycobacterium abscessus; details: 7 days; for MIC: AST media (CAAT)
B. cenocepacia [1] = assay: MIC by broth microdilution against B. cenocepacia; assay type: cell-based, Burkholderia cenocepacia; details: B. cenocepacia isolates
Procedure: MIC values were determined using a modification of the standard broth microdilution reference method defined by the Clinical and Laboratory Standards Institute (CLSI), CLSL. 2015. Methods for Dilution Antimicrobial Susceptibility Tests for Bacteria That Grow Aerobically; Approved Standard-10th Edition. Clinical and Laboratory Standards Institute, Wayne, PA. The modification was based on the replacement of Mueller Hinton Broth with either CAA media (with and without NaCl) or CAA supplemented with 2.5% human serum. MIC is the minimum concentration of peptide sufficient to suppress at least 80% of the bacterial growth compared to control.
Based on these nine most prevalent strains, direct lytic agents, including GN370, AM1, AM2, and AM3, were evaluated against various isolates from each of the 9 strains. MICs and MBECs (Example 3) were determined, and a sputum inhibition test was conducted, as described below in Example 5.
The MICs for were determined as described below using the broth microdilution method for meropenem, GN370, AM1, AM2, and AM3. The results are shown below in Tables 8-12.

P. aeruginosa [2] = assay: Time-kill assay in cystic fibrosis patient sputum, P. aeruginosa; assay type: cell-based, Pseudomonas aeruginosa
From the text: (§1) Sputum from 5 cystic fibrosis patients was pooled. The resulting mixture was not filtered, as it was very dense and not amenable to sterilization by filtration. Sputum is known to be a complex mixture of DNA, carbohydrates, and lipids ([…], 2016). As used herein, the term “sputum” refers to the mucus present in the respiratory tract of an animal, such as a human. Sputum may increase in thickness due to the irritation or infection, including bacterial infection, and in some instances, may be expelled by the animal while coughing. In certain instances, cystic fibrosis may be characterized by the presence of a thick, sticky mucus or sputum present in the lungs of cystic fibrosis patients. The activity of GN370, AM1, AM2, AM3, and meropenem was determined in the sputum using a time-kill assay format as disclosed in Zhang et al., Antimicrobial peptide therapeutics for cystic fibrosis, Antimicrobial Agents Chemother. 2005; 49(7):2921-2927. […] Untreated controls were included in addition to pretreatment plating (t=0) for a baseline CFU determination. Activity was also determined in the absence of sputum for comparison to activity observed in the presence of sputum.

S. maltophilia [3] = assay: Time-kill assay in cystic fibrosis patient sputum, S. maltophilia; assay type: cell-based, Stenotrophomonas maltophilia
From the text: as §1

A. xylosoxidans = assay: Time-kill assay in cystic fibrosis patient sputum, A. xylosoxidans; assay type: cell-based, Achromobacter xylosoxidans
From the text: as §1

P. aeruginosa [4] = assay: Serial passage resistance development study, P. aeruginosa; assay type: cell-based, Pseudomonas aeruginosa; details: P. aeruginosa strain CFS 1292, Day 28
A. ruhlandii = assay type: cell-based, Achromobacter ruhlandii
Procedure: (§2) The MBEC (after 2-hour treatments) was determined as described in Jones and Wozniak, PsI Produced by Mucoid Pseudomonas aeruginosa Contributes to the Establishment of Biofilms and Immune Evasion, Am. Soc. Microbiol. 2017, 8(3):e00864-17. Meropenem and tobramycin were included as controls and were both poorly active, with MBEC90 values of >256 μg/mL (data not shown).

B. cenocepacia [5] = assay type: cell-based, Burkholderia cenocepacia
Procedure: as §2

B. gladioli = assay type: cell-based, Burkholderia gladioli; details: B. gladioli (15); 2-hour treatment
Procedure: as §2

S. maltophilia [6] = test system: S. maltophilia

With “MRLKMARRRYRLPRRRSRRLFSRTALRMHPRNRLRRIMRGGIRF [AM1]” the “activity (MIC) against Mycobacterium species” value (Mycobacterium species) was “highest activity”, the MIC (M. fortuitum) was 2 µg/mL and the MIC (M. avium) was 1 Tg/mL. The MIC (M. intracellulare) was 0.5 µg/mL, the MIC (M. tuberculosis; M. tuberculosis (ATCC 35817), (ADC, T) media) was 8 µg/mL and the MIC (M. tuberculosis; M. tuberculosis strain TN8109_LB (MDR), 7H9 broth, 20 days) was 4 µg/mL. For the same sequence, the MIC (M. tuberculosis; M. tuberculosis strain TN8562_M33 (susc), 7H9 broth, 20 days) was 4 µg/mL, the MIC (M. tuberculosis; M. tuberculosis strain TN10525_LL (MDR), 7H9 broth, 20 days) was 8 µg/mL and the MIC (M. tuberculosis; M. tuberculosis strain TN10571_KY (MDR), 7H9 broth, 20 days) was 2 µg/mL. It also gave an MIC (M. tuberculosis; M. tuberculosis strain TN12657_KQ15 (IS), 7H9 broth, 20 days) of 16 µg/mL, an MIC (M. tuberculosis; M. tuberculosis strain TN13923_HD17 (susc), 7H9 broth, 20 days) of 16 µg/mL and an MIC (M. tuberculosis; M. tuberculosis strain TN18349_W738 (susc), 7H9 broth, 20 days) of 0.5 µg/mL. The MIC (M. tuberculosis; M. tuberculosis strain TN34503_001 (susc), 7H9 broth, 20 days) was 0.5 µg/mL, the “activity (MIC) against M. abscessus” value (M. abscessus; 5 clinical MDR strains and 1 ATCC strain, CAAT) was “highly active” and the MIC (M. abscessus; M. abscessus strain BK51402) was 1 µg/mL. The MIC (M. abscessus; M. abscessus strain BK51403 (ATCC 19977)) was 2 µg/mL, the MIC (M. abscessus; M. abscessus strain BK51408) was 4 µg/mL and the MIC (M. abscessus; M. abscessus strain BK55096) was 1 µg/mL. For the same sequence, the MIC (M. abscessus; M. abscessus strain BK55691) was 1 µg/mL, the MIC (M. abscessus; M. abscessus strain BK58156) was 2 µg/mL and the MIC50 (B. cenocepacia [1]) was greater than 128 µg/mL. The MIC90 (B. cenocepacia [1]) was greater than 128 µg/mL, the “effect of sputum on antibacterial activity” value (“effect of sputum” for short) (P. aeruginosa [2]; 10% CF sputum vs no sputum) was “not inhibited” and the “Log10 CFU/mL of sputum” value (P. aeruginosa [2]; absence of sputum, 1 hr) was 2.3 Log10 CFU/mL of sputum. For the same sequence, the “Log10 CFU/mL of sputum” value (P. aeruginosa [2]; absence of sputum, 3 hr) was 2.3 Log10 CFU/mL of sputum, the “Log10 CFU/mL of sputum” value (P. aeruginosa [2]; absence of sputum, 24 hr) was 2.3 Log10 CFU/mL of sputum and the “Log10 CFU/mL of sputum” value (P. aeruginosa [2]; presence of 10% sputum, 1 hr) was 2.3 Log10 CFU/mL of sputum. The “Log10 CFU/mL of sputum” value (P. aeruginosa [2]; presence of 10% sputum, 3 hr) was 2.3 Log10 CFU/mL of sputum, the “Log10 CFU/mL of sputum” value (P. aeruginosa [2]; presence of 10% sputum, 24 hr) was 2.3 Log10 CFU/mL of sputum and the “killing by 1 hour, maintained by 24 hours” value (P. aeruginosa [2]; time-kill) was “complete killing”. The “effect of sputum” value (S. maltophilia [3]; 10% CF sputum vs no sputum) was “none of GN370, AM1, AM2, and AM3 was inhibited”, the “Log10 CFU/mL of sputum” value (S. maltophilia [3]; absence of sputum, 1 hr) was 2.3 Log10 CFU/mL of sputum and the “Log10 CFU/mL of sputum” value (S. maltophilia [3]; absence of sputum, 3 hr) was 2.3 Log10 CFU/mL of sputum. For the same sequence, the “Log10 CFU/mL of sputum” value (S. maltophilia [3]; absence of sputum, 24 hr) was 2.3 Log10 CFU/mL of sputum, the “Log10 CFU/mL of sputum” value (S. maltophilia [3]; presence of 10% sputum, 1 hr) was 2.3 Log10 CFU/mL of sputum and the “Log10 CFU/mL of sputum” value (S. maltophilia [3]; presence of 10% sputum, 3 hr) was 2.3 Log10 CFU/mL of sputum. The “Log10 CFU/mL of sputum” value (S. maltophilia [3]; presence of 10% sputum, 24 hr) was 2.3 Log10 CFU/mL of sputum, the “killing by 1 hour, maintained at 24 hours” value (S. maltophilia [3]; time-kill) was “complete killing” and the “effect of sputum” value (A. xylosoxidans; 10% CF sputum vs no sputum) was “none of GN370, AM1, AM2, and AM3 was inhibited”. For the same sequence, the “Log10 CFU/mL of sputum” value (A. xylosoxidans; absence of sputum, 1 hr) was 2.3 Log10 CFU/mL of sputum, the “Log10 CFU/mL of sputum” value (A. xylosoxidans; absence of sputum, 3 hr) was 2.3 Log10 CFU/mL of sputum and the “Log10 CFU/mL of sputum” value (A. xylosoxidans; absence of sputum, 24 hr) was 2.3 Log10 CFU/mL of sputum. The “Log10 CFU/mL of sputum” value (A. xylosoxidans; presence of 10% sputum, 1 hr) was 2.3 Log10 CFU/mL of sputum, the “Log10 CFU/mL of sputum” value (A. xylosoxidans; presence of 10% sputum, 3 hr) was 2.3 Log10 CFU/mL of sputum and the “Log10 CFU/mL of sputum” value (A. xylosoxidans; presence of 10% sputum, 24 hr) was 2.3 Log10 CFU/mL of sputum. The “killing by 1 hour, maintained at 24 hours” value (A. xylosoxidans; time-kill) was “complete killing”, the “change in MIC over serial passage” value (P. aeruginosa [4]) was “no significant changes” and the MBEC50 (A. ruhlandii) was 16 µg/mL. The MBEC90 (A. ruhlandii) was 16 µg/mL, the “MBEC Range” value (A. ruhlandii) was 2 to 16 µg/mL and the MBEC50 (B. cenocepacia [5]) was 16 µg/mL. The MBEC90 (B. cenocepacia [5]) was 32 µg/mL, the “MBEC Range” value (B. cenocepacia [5]) was 2 to 32 µg/mL and the MBEC50 (B. gladioli) was 4 µg/mL. The MBEC90 (B. gladioli) was 16 µg/mL, the “MBEC Range” value (B. gladioli) was 0.5 to 32 µg/mL and the “AM1 MIC50” value (S. maltophilia [6]) was 0.5 µg/mL. For the same sequence, the “AM1 MIC90” value (S. maltophilia [6]) was 1 µg/mL, the MIC50 (S. maltophilia [6]) was 0.5 µg/mL and the MIC90 (S. maltophilia [6]) was 1 µg/mL. For the same sequence, the “MIC Range” value (S. maltophilia [6]; MDR S. maltophilia isolates (n = 8), in µg/mL) was 0.5-1, the MIC50 (S. maltophilia [6]; S. maltophilia isolates) was 0.5 µg/mL and the MIC90 (S. maltophilia [6]; S. maltophilia isolates) was 1 µg/mL. The “MIC Range” value (S. maltophilia [6]; S. maltophilia isolates, in µg/mL) was 0.016-1, the MIC (S. maltophilia [6]; S. maltophilia test organism of the sputum time-kill assay) was “AM1 (MIC = 0.5)” and the “activity (MIC) against S. maltophilia isolates” value (S. maltophilia [6]; all tested isolates, Tables 8-12) was “highly active”. The “AM1 MIC Range” value (S. maltophilia [6]; carbapenem-resistant S. maltophilia isolates (n = 23), in µg/mL) was 0.016-1.
